From patent publication US10206877B2, “Pharmaceutical compositions for the treatment of cystic fibrosis transmembrane conductance regulator mediated diseases” (Vertex Pharmaceuticals Incorporated, priority 2014, dated 2019)

Tests used:
[1] = Kinetic dissolution / fluid stability in fed state simulated intestinal fluid (FedSIF); format: physicochemical
Description: FIG. 9 is a bar graph of kinetic dissolution data for Compound 1 in fed state simulated intestinal fluid (FedSIF) solutions in the presence of Compound 2 in a neat coSDD substantially free of polymer and alone as measured by concentration versus time.
FIG. 10 is a bar graph of kinetic dissolution data for Compound 2 in FedSIF solutions in the presence of Compound 1 in a neat coSDD substantially free of polymer and alone as measured by concentration versus time.
The present invention features compositions where properties such as physical stability and dissolution rates are improved when one therapeutic agent is in the presence of another. […] FIG. 9 depicts fluid stability of Compound 1 in fed state simulated intestinal fluid (FedSIF). The set of bars labeled Neat 1:1 coSDD is the neat coSDD of Compound 1 and Compound 2 substantially free of polymer featured in the present invention. Along the y axis is concentration of Compound 1 in mg/ml and each bar along the x axis represents time: 0.5 h, 1 h, 3 h, 5 h, 29 h, and 72 h.
FIG. 10 depicts fluid stability of Compound 2 in compositions of the present invention in FedSIF. The set of bars labeled Neat 1:1 coSDD is the neat coSDD of Compound 1 and Compound 2 substantially free of polymer featured in the present invention.

[2] = Compound 1 crystallization kinetics at elevated temperature and 75% relative humidity; format: physicochemical; conditions: for Crystallization / stability towards crystallization: 75% relative humidity; for Compound 1 crystallized: at about 25 hours; for stability towards crystallization: 80° C. and 70° C. (FIGS. 12, 13)
Description: FIG. 12 is a plot of crystallization kinetics data for Compound 1 at 80° C. and 75% relative humidity when in a Compound 2 free tablet (circles), a spray dried dispersion (squares), and a tablet comprising Compound 2 (triangles).
FIG. 13 is a plot of crystallization kinetics data for Compound 1 at 70° C. and 75% relative humidity when in a Compound 2 free tablet (circles), a spray dried dispersion (squares), and a tablet comprising Compound 2 (triangles).
FIGS. 12 and 13 depict the Compound 1 crystallization kinetics under 75% relative humidity and 80° C. and 70° C., respectively. Triangles represent a tablet formulation of a blend of the two separate spray dried dispersions of Compound 1 and Compound 2. Circles represent the same tablet formulation just lacking Compound 2. Squares represent the separate spray dried dispersion of Compound 1.
The phenomena of one therapeutic agent having improved properties in the presence of another therapeutic agent is not limited to the neat co-spray dried dispersions substantially free of polymer previously described. […] Table 2 lists the % crystallization of an 80% by weight SDD of Compound 1 over time at 80° C. at 75% relative humidity in the absence of Compound 2. Table 3 lists the % crystallization of Compound 1 in the presence of Compound 2 in a tablet of the present invention comprising a blend of Compound 1 SDD and Compound 2 SDD at […] at 75% relative humidity.

[3] = Dissolution rate experiments in fasted simulated fluids; format: physicochemical; conditions: tablet of neat co-spray dried dispersion of Compound 1 and Compound 2 vs tablet of SDD of Compound 2 alone and polymer; fasted simulated fluids (FIG. 11)
Description: FIG. 11 is a plot of dissolution data for Compound 2 in fasted simulated fluids alone and in the presence of Compound 1 in a neat coSDD substantially free of polymer. […] FIG. 11 depicts the results of dissolution rate experiments for a tablet comprising the neat co-spray dried dispersion of Compound 1 and Compound 2 (circles) and a tablet comprising a spray dried dispersion of Compound 2 alone and polymer (triangles).

[4] = Dog pK of tablets (Compound 2 exposure); format: in vivo
Description: FIG. 11 depicts the results of dissolution rate experiments for a tablet comprising the neat co-spray dried dispersion of Compound 1 and Compound 2 (circles) and a tablet comprising a spray dried dispersion of Compound 2 alone and polymer (triangles). […] When Compound 2 is in the presence of Compound 1, the maximum concentration and area under the curve increases by 73% and 47%, respectively, relative to Compound 2 alone.

[5] = dog pK, ratio Neat coSDD tablet / Individual Tablets (Compound 2 alone)
[6] = dog, Compound 2 in the presence of Compound 1 relative to Compound 2 alone

CC(C)(CO)c1cc2cc(NC(=O)C3(c4ccc5c(c4)OC(F)(F)O5)CC3)c(F)cc2n1C[C@@H](O)CO [Compound 1, (R)-1-(2,2-difluorobenzo[d][1,3]dioxol-5-yl)-N-(1-(2,3-dihydroxypropyl)-6-fluoro-2-(1-hydroxy-2-methylpropan-2-yl)-1H-indol-5-yl)cyclopropanecarboxamide]
concentration stability of Compound 1 in FedSIF ([1]; 1:1 coSDD (20% HPMCAS) vs Compound 1 SDD (50% HPMCAS), over 72 h (FIG. 9)): concentration stability is greater
concentration stability of Compound 1 in FedSIF ([1]; 2:1 coSDD (20% HPMCAS) vs Compound 1 SDD (50% HPMCAS), over 72 h (FIG. 9)): more consistent
stability of Compound 1 concentration in FedSIF ([1]; Neat 1:1 coSDD (no polymer) vs Compound 1 SDD (50% HPMCAS), over 72 h (FIG. 9)): greater and more consistent stability
Crystallization ([2]; 80% by weight SDD of Compound 1, absence of Compound 2, 80° C., 0 Hrs.): 0%
Crystallization ([2]; 80% by weight SDD of Compound 1, absence of Compound 2, 80° C., 5.2 Hrs.): 0%
Crystallization ([2]; 80% by weight SDD of Compound 1, absence of Compound 2, 80° C., 6 Hrs.): 0%
Crystallization ([2]; 80% by weight SDD of Compound 1, absence of Compound 2, 80° C., 9 Hrs.): 0.7%
Crystallization ([2]; 80% by weight SDD of Compound 1, absence of Compound 2, 80° C., 14.7 Hrs.): 5%
Crystallization ([2]; 80% by weight SDD of Compound 1, absence of Compound 2, 80° C., 25 Hrs.): 46.4%
Crystallization ([2]; 80% by weight SDD of Compound 1, absence of Compound 2, 80° C., 168 Hrs.): 88%
Compound 1 crystallized ([2]; in the absence of Compound 2): 46%
stability towards crystallization ([2]; tablet blend of the two separate SDDs vs Compound 2 free tablet): significantly more stable towards crystallization
Crystallization ([2]; tablet comprising a blend of Compound 1 SDD and Compound 2 SDD, 80 CC, 0 Hrs.): 0%
Crystallization ([2]; tablet comprising a blend of Compound 1 SDD and Compound 2 SDD, 80 CC, 7 Hrs.): 3%
Crystallization ([2]; tablet comprising a blend of Compound 1 SDD and Compound 2 SDD, 80 CC, 14 Hrs.): 6%
Crystallization ([2]; tablet comprising a blend of Compound 1 SDD and Compound 2 SDD, 80 CC, 21 Hrs.): 8%
Crystallization ([2]; tablet comprising a blend of Compound 1 SDD and Compound 2 SDD, 80 CC, 26 Hrs.): 10%
stability towards crystallization ([2]; tablet formulation with Compound 2 vs separate spray dried dispersion of Compound 1): also more stable
Compound 1 crystallized ([2]; when Compound 2 was present): 10%

CC(C)(C)c1cc(C(C)(C)C)c(NC(=O)c2c[nH]c3ccccc3c2=O)cc1O [Compound 2, N-[2,4-bis(1,1-dimethylethyl)-5-hydroxyphenyl]-1,4-dihydro-4-oxoquinoline-3-carboxamide]
concentration stability of Compound 2 in FedSIF ([1]; 1:1 coSDD (20% HPMCAS) vs Compound 2 SDD (20% HPMCAS), over 72 h (FIG. 10)): concentration stability is greater
concentration stability of Compound 2 in FedSIF ([1]; 2:1 coSDD (20% HPMCAS) vs Compound 2 SDD (20% HPMCAS), over 72 h (FIG. 10)): more consistent
stability of Compound 2 concentration in FedSIF ([1]; Neat 1:1 coSDD (no polymer) vs Compound 2 SDD (20% HPMCAS), over 72 h (FIG. 10)): increased stability
dissolution rate of Compound 2 [3]: significant increase in dissolution rates
AUC wt norm, Geometric Mean Ratio [4, 5]: 146.73
Cmax wt norm, Geometric Mean Ratio [4, 5]: 172.93
increase of area under the curve [4, 6]: 47%
increase of maximum concentration [4, 6]: 73%
exposure in vivo ([4]; dog, tablet of neat coSDD relative to tablet of Compound 2 alone): statistically significant increases in exposure
